Laboratory results taken from ChEMBL document CHEMBL4765365, “Design, synthesis and antitumour evaluation of pyrrolo[1,2-f]-phenanthridine and dibenzo[f,h]pyrrolo[1,2-b]isoquinoline derivatives” (Eur J Med Chem, 2020).
One block for each compound: values may come before it. Active and inactive are the calls of the source. No cut-off for these calls is given here.

How the values were obtained:
[1] = tested on: CCRF-CEM; experiment: Cytotoxicity against human CCRF-CEM cells assessed as reduction in cell viability incubated for 72 hrs by XTT assay; format: functional, cell-based
[2] = tested on: NCI-H460; experiment: Cytotoxicity against human NCI-H460 cells assessed as reduction in cell viability incubated for 72 hrs by XTT assay; format: functional, cell-based; settings: NCI-H460, 72 h
[3] = tested on: CEM-VLB; experiment: Cytotoxicity against human CEM-VLB cells assessed as reduction in cell viability incubated for 72 hrs by XTT assay; format: functional, cell-based
[4] = Cytotoxicity against human PacaS1 cells assessed as reduction in cell viability incubated for 72 hrs by XTT assay; format: functional, cell-based; settings: PacaS1, 72 h
[5] = tested on: HCT-116; experiment: Cytotoxicity against human HCT-116 cells assessed as reduction in cell viability incubated for 72 hrs by XTT assay; format: functional, cell-based; settings: HCT-116, 72 h
[6] = tested on: NCI-H1650; experiment: Cytotoxicity against human NCI-H1650 cells assessed as reduction in cell viability incubated for 72 hrs by XTT assay; format: functional, cell-based; settings: NCI-H1650, 72 h
[7] = tested on: dsDNA; experiment: Induction of pBR322 DNA interstand crosslink at 1 to 20 uM incubated for 2 hrs by agarose gel electrophoresis assay; settings: dose 1-20 µM

Structure (SMILES): CCNC(=O)OCc1cn2c3ccccc3c3ccccc3c2c1COC(=O)NCC
IC50 [1]: 1.28 µM
IC50 [2]: 4.25 µM
IC50 [3]: 1.24 µM
IC50 [4]: 4.41 µM
IC50 [5]: 1.8 µM
IC50 [6]: 5.73 µM

Structure (SMILES): CCNC(=O)OCc1c(COC(=O)NCC)c2c3ccccc3c3ccccc3n2c1C
IC50 [1]: 0.37 µM
IC50 [2]: 1.2 µM
IC50 [3]: 0.37 µM
IC50 [4]: 2.26 µM
IC50 [5]: 2.1 µM
IC50 [6]: 4.47 µM

Structure (SMILES): CC(C)NC(=O)OCc1cn2c3ccccc3c3ccccc3c2c1COC(=O)NC(C)C
IC50 [1]: 1.75 µM
IC50 [2]: 7.2 µM
IC50 [3]: 2.21 µM
IC50 [4]: 15.3 µM
IC50 [5]: 2.27 µM
IC50 [6]: 9.62 µM

Structure (SMILES): OCc1c(CO)c(-c2ccc(F)cc2)n2c1Cc1c(c3ccccc3c3ccccc13)C2
IC50 [1]: 6.5 µM
IC50 [3]: 6.14 µM

Structure (SMILES): COc1ccc(-c2c(CO)c(CO)c3c4ccccc4c4ccccc4n23)cc1
IC50 [1]: 6.34 µM
IC50 [3]: 4.77 µM

Structure (SMILES): Cc1c(COC(=O)NC(C)C)c(COC(=O)NC(C)C)c2c3ccccc3c3ccccc3n12
IC50 [1]: 0.35 µM
IC50 [2]: 1.19 µM
IC50 [3]: 0.34 µM
IC50 [4]: 1.8 µM
IC50 [5]: 2.12 µM
IC50 [6]: 5.17 µM

Structure (SMILES): OCc1c(CO)c2c3ccccc3c3ccccc3n2c1-c1ccc(F)cc1
IC50 [1]: 8.09 µM
IC50 [3]: 6.44 µM

Structure (SMILES): CCc1c(COC(=O)NC(C)C)c(COC(=O)NC(C)C)c2c3ccccc3c3ccccc3n12
IC50 [1]: 1.89 µM
IC50 [2]: 4.98 µM
IC50 [3]: 1.55 µM
IC50 [4]: 4.58 µM
IC50 [5]: 16.2 µM
IC50 [6]: 10.2 µM

Activity [7]: Active
Structure (SMILES): CCc1c(CO)c(CO)c2n1Cc1c(c3ccccc3c3ccccc13)C2
IC50 [1]: 1.38 µM
IC50 [2]: 1.33 µM
IC50 [3]: 1.08 µM
IC50 [4]: 2.66 µM
IC50 [5]: 2.7 µM
IC50 [6]: 2.39 µM

Structure (SMILES): CC(C)NC(=O)OCc1c(COC(=O)NC(C)C)c2c3ccccc3c3ccccc3n2c1-c1ccccc1
IC50 [1]: 3.15 µM
IC50 [2]: 14.9 µM
IC50 [3]: 4.48 µM
IC50 [4]: 13.8 µM
IC50 [5]: 16.2 µM
IC50 [6]: 16.3 µM

Structure (SMILES): CC[C@]1(O)C[C@@H]2CN(CCc3c([nH]c4ccccc34)[C@@](C(=O)OC)(c3cc4c(cc3OC)N(C)[C@H]3[C@@](O)(C(=O)OC)[C@H](OC(C)=O)[C@]5(CC)C=CCN6CC[C@]43[C@@H]65)C2)C1 [VINBLASTINE]
IC50 [1]: 0.00141 µM
IC50 [3]: 0.393 µM

Structure (SMILES): CCNC(=O)OCc1c(COC(=O)NCC)c2c3ccccc3c3ccccc3n2c1-c1ccc(OC)cc1
IC50 [1]: 3.01 µM
IC50 [3]: 2.85 µM

Structure (SMILES): COc1ccc(-c2c(COC(=O)NC(C)C)c(COC(=O)NC(C)C)c3c4ccccc4c4ccccc4n23)cc1
IC50 [1]: 2.19 µM
IC50 [3]: 2.76 µM

Activity [7]: Active
Structure (SMILES): Cc1c(CO)c(CO)c2n1Cc1c(c3ccccc3c3ccccc13)C2
IC50 [1]: 0.36 µM
IC50 [2]: 0.18 µM
IC50 [3]: 0.34 µM
IC50 [4]: 1.8 µM
IC50 [5]: 1.57 µM
IC50 [6]: 2.69 µM

Structure (SMILES): OCc1c(CO)c2c3ccccc3c3ccccc3n2c1-c1ccccc1
IC50 [1]: 9.82 µM
IC50 [2]: 37.5 µM
IC50 [3]: 10.9 µM
IC50 [4]: 36.7 µM
IC50 [5]: 73.3 µM
IC50 [6]: 39 µM

Structure (SMILES): CCNC(=O)OCc1c(COC(=O)NCC)c2c3ccccc3c3ccccc3n2c1-c1ccccc1
IC50 [1]: 4.09 µM
IC50 [2]: 9.03 µM
IC50 [3]: 2.48 µM
IC50 [4]: 11.1 µM
IC50 [5]: 21 µM
IC50 [6]: 18.2 µM

Structure (SMILES): CCc1c(CO)c(CO)c2c3ccccc3c3ccccc3n12
IC50 [1]: 7.39 µM
IC50 [2]: 9.48 µM
IC50 [3]: 2.89 µM
IC50 [4]: 6.2 µM
IC50 [5]: 11.5 µM
IC50 [6]: 13.6 µM

Structure (SMILES): COc1ccc(-c2c(CO)c(CO)c3n2Cc2c(c4ccccc4c4ccccc24)C3)cc1
IC50 [1]: 2.99 µM
IC50 [3]: 2.83 µM

Structure (SMILES): OCc1c(CO)c(-c2ccccc2)n2c1Cc1c(c3ccccc3c3ccccc13)C2
IC50 [1]: 3.21 µM
IC50 [2]: 2.34 µM
IC50 [3]: 3.66 µM
IC50 [4]: 4.45 µM
IC50 [5]: 5.99 µM
IC50 [6]: 7.95 µM

Activity [7]: Active
Structure (SMILES): Cc1c(CO)c(CO)c2c3ccccc3c3ccccc3n12
IC50 [1]: 0.91 µM
IC50 [2]: 2.87 µM
IC50 [3]: 0.55 µM
IC50 [4]: 3.5 µM
IC50 [5]: 1.88 µM
IC50 [6]: 4.46 µM

Structure (SMILES): CCNC(=O)OCc1c(COC(=O)NCC)c2c3ccccc3c3ccccc3n2c1CC
IC50 [1]: 1.89 µM
IC50 [2]: 9.09 µM
IC50 [3]: 1.68 µM
IC50 [4]: 5.05 µM
IC50 [5]: 8.53 µM
IC50 [6]: 10.1 µM

Structure (SMILES): CC(C)NC(=O)OCc1c(COC(=O)NC(C)C)c2c3ccccc3c3ccccc3n2c1-c1ccc(F)cc1
IC50 [1]: 4.1 µM
IC50 [3]: 3.17 µM

Structure (SMILES): CCNC(=O)OCc1c(COC(=O)NCC)c2c3ccccc3c3ccccc3n2c1-c1ccc(F)cc1
IC50 [1]: 3.41 µM
IC50 [3]: 3.4 µM
